Here are results for seven compounds from the supplement of paper PMC8671470.

Counter-ions that a name gives are not always drawn.

What all share (test): area under dose-response curve (viability, 1 nM-10 uM) (fraction (0-1)); higher = more sensitive
Holding throughout (settings): 72 h

Experiment [1] relates to myeloid leukemia patient primary cells Pat.8. Here is the method: (§1)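 AUC (0–1, higher = more sensitive) of the 5-point dose–response (1 nM–10 µM, 72 h, CellTiter-Glo) in primary AML/CML patient mononuclear cells. 0.030103 is the floor for inactive compounds.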
Experiment [2] has as its system myeloid leukemia patient primary cells Pat.2. The protocol: as §1
For experiment [3], the system named is myeloid leukemia patient primary cells Pat.12. Here is the method: as §1
Experiment [4] concerns myeloid leukemia patient primary cells Pat.13. Here is the method:
as §1

The subject of experiment [5] is myeloid leukemia patient primary cells Pat.10. The protocol:
as §1

The test system of experiment [6] is myeloid leukemia patient primary cells Pat.9. The protocol:
as §1

The test system of experiment [7] is myeloid leukemia patient primary cells Pat.15. The protocol:
as §1

For experiment [8], the system named is myeloid leukemia patient primary cells Pat.5. The protocol:
as §1

Experiment [9] deals with myeloid leukemia patient primary cells Pat.11. The protocol: as §1
For experiment [10], the system named is myeloid leukemia patient primary cells Pat.1. The protocol: as §1
For experiment [11], the system named is myeloid leukemia patient primary cells Pat.6. The protocol:
as §1

Experiment [12] deals with myeloid leukemia patient primary cells Pat.14. The protocol:
as §1

Experiment [13] deals with myeloid leukemia patient primary cells Pat.7. Here is the method:
as §1

Experiment [14] concerns myeloid leukemia patient primary cells Pat.4. Here is the method:
as §1

Experiment [15] relates to myeloid leukemia patient primary cells Pat.3. The protocol:
as §1

Regarding `CC(C)(Cc1ccccc1)NCC(O)c1ccc(O)c(NS(C)(=O)=O)c1` (stereo not drawn) [Zinterol hydrochloride], the “area under dose-response curve” value in experiment [1], in [2], in [3], in [4], in experiment [5] and in experiment [6] was less than 0.0301 each time. Also, the “area under dose-response curve” value in experiment [7], in experiment [8], in experiment [9], in [10], in [11] and in experiment [12] was less than 0.0301 throughout. In addition, the “area under dose-response curve” value in experiment [13] and in [14] was less than 0.0301 in each case.

In the case of `O=C(Cc1cccc(OC(F)(F)F)c1)Nc1ccc(CCCCc2nnc(NC(=O)Cc3ccccn3)s2)nn1` [CB-839], the “area under dose-response curve” value in experiment [1] is less than 0.0301; in experiment [2] it was less than 0.0301; in [3], less than 0.0301; in [4] it was less than 0.0301; in [5], 0.665; in [15], 0.702. The “area under dose-response curve” value in [6] was 0.752; in experiment [7], 0.283; in experiment [8], less than 0.0301; in experiment [9], less than 0.0301; in experiment [10] it was less than 0.0301; in [11], less than 0.0301. Further, the “area under dose-response curve” value is 0.434 in [12], 0.532 in experiment [13] and less than 0.0301 in experiment [14].

With `O=C(Oc1cccc(F)c1OC(=O)c1cccc(O)c1)c1cccc(O)c1` [WZB117], the “area under dose-response curve” value in experiment [1] was 0.211; in experiment [2] it was 0.0336; in experiment [3], 0.0633; in [4], less than 0.0301; in experiment [5] it was 0.176; in experiment [15], 0.162. For the same compound, the “area under dose-response curve” value in [6] is 0.223; in experiment [8] it was 0.748; in experiment [9], 0.0511; in experiment [10] it was 0.0346; in [11], less than 0.0301; in experiment [12] it was 0.107. Besides, the “area under dose-response curve” value in [13] is 0.119; in [14], 0.0833.

With `CCC(CC#N)OC(=O)N[C@@H](C)c1cccc(NC(=O)Nc2ccc(-c3cnco3)c(OC)c2)c1` (stereo in doubt) [AVN-944], the “area under dose-response curve” value in [2] was less than 0.0301; in experiment [3], less than 0.0301; in [4], 0.162; in [5], 0.508; in [15], 0.44; in experiment [6], 0.438. Moreover, the “area under dose-response curve” value is 0.641 in experiment [8], 0.167 in experiment [12], 0.545 in [13] and 0.162 in [14].

As for `Oc1ncc(F)c(O)n1` [5-fluorouracil], the “area under dose-response curve” value in experiment [1] was less than 0.0301; in experiment [2] it was less than 0.0301; in [3], less than 0.0301; in [4], less than 0.0301; in [5], 0.0668; in experiment [15], 0.0441. Besides, the “area under dose-response curve” value in [6] was 0.0717; in [7], less than 0.0301; in experiment [8] it was 0.188; in experiment [9], less than 0.0301; in experiment [10], less than 0.0301; in [11] it was less than 0.0301. The “area under dose-response curve” value was less than 0.0301 in experiment [12], 0.0322 in experiment [13] and 0.0407 in [14].

In the case of `O=C(/C=C/c1cccnc1)NCCCCC1CCN(C(=O)c2ccccc2)CC1` [Daporinad], the “area under dose-response curve” value in experiment [1] turned out to be 0.823; in experiment [2], 0.754; in [3], 0.772; in [4], 0.754; in experiment [5] it was 0.956; in experiment [15], 0.995. The “area under dose-response curve” value was determined as 0.995 in experiment [6]; 0.792 in experiment [7]; 0.995 in [8]; 0.849 in [9]; 0.616 in experiment [10]; 0.609 in [11]. Also, the “area under dose-response curve” value was 0.977 in [12], 0.995 in experiment [13] and 0.947 in experiment [14].

On to `Clc1cc(Cl)c(OCC#CI)cc1Cl` [Haloprogin], for which the “area under dose-response curve” value in [1] was 0.175; in [2], 0.209; in experiment [3], 0.204; in experiment [4], 0.152; in [5] it was 0.411; in [15], 0.388. Further, the “area under dose-response curve” value in [6] is 0.505; in experiment [7], 0.183; in [8], 0.677; in [9], 0.166; in experiment [10], 0.258; in [11] it was 0.238. Moreover, the “area under dose-response curve” value in experiment [12] stood at 0.427; in [13], 0.356; in [14], 0.323.
